We go through five molecules from ChEMBL document CHEMBL1126515 (Bioorg Med Chem Lett, 1993).

For assay [1], the target named is T1, Cholecystokinin receptor type A (Rattus norvegicus, UniProt P30551).
T1 sequence (P30551 whole entry): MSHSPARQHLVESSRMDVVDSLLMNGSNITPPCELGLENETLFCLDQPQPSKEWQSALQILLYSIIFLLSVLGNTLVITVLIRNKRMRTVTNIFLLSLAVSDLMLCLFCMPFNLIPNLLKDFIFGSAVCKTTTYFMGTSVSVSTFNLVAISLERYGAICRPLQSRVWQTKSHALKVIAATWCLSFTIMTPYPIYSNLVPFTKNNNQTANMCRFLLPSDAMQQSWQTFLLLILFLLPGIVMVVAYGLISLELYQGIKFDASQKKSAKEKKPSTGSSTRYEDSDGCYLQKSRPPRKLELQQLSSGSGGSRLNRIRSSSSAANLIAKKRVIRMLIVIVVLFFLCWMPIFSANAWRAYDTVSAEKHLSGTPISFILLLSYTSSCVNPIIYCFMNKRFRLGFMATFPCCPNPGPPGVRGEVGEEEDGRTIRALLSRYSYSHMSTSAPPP
Description: Compound measured for half-maximal inhibition of specific binding of [125I]-Bolton Hunter CCK-26-33 to CCK-A receptor in the rat pancreas.

Assay [2] addresses T2, Gastrin/cholecystokinin type B receptor (Mus musculus, UniProt P56481).
T2 sequence (P56481 whole entry): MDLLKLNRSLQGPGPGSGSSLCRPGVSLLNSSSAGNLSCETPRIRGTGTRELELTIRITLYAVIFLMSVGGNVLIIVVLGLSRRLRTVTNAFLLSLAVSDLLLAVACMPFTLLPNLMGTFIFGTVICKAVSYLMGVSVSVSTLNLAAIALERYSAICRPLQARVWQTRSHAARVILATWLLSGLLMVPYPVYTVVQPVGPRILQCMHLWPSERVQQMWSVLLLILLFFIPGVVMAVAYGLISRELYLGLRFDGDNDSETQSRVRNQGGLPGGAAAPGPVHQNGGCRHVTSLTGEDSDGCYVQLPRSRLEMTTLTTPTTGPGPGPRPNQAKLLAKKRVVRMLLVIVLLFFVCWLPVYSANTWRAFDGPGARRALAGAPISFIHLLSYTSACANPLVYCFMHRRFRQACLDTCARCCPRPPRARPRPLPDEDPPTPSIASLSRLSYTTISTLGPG
Put plainly: Compound measured for half-maximal inhibition of specific binding of [125I]bolton Hunter CCK-26-33 to CCK-B receptor in the mouse cerebral cortex. The format is tissue-based.

As usually defined, the IC50 is the midpoint of a concentration-inhibition curve. A lower IC50 goes with higher potency. In assay [1], `C[C@](Cc1c[nH]c2ccccc12)(NC(=O)OC1C2CC3CC(C2)CC1C3)C(=O)N[C@H](CC(=O)O)Cc1ccccc1` (some centres undefined) displayed an IC50 of 30 nM. Consider `O=C(O)C[C@@H](Cc1ccccc1)NC(=O)/C(=C/c1c[nH]c2ccccc12)NC(=O)OC1C2CC3CC(C2)CC1C3` (some centres undefined), for which the IC50 amounted to 99 nM in assay [2] and 3.7 nM in assay [1].

For the molecule `O=C(O)C[C@@H](Cc1ccccc1)NC(=O)C(=Cc1c[nH]c2ccccc12)NC(=O)OC1C2CC3CC(C2)CC1C3` (some centres undefined), the results for the IC50 in assay [2] and in assay [1] were 60 nM and 3.9 nM, respectively. The corresponding values for `O=C(O)C[C@H](Cc1ccccc1)NC(=O)C(=Cc1c[nH]c2ccccc12)NC(=O)OC1C2CC3CC(C2)CC1C3` (some centres undefined) are 0.3 nM and 18 nM. Taken in the same sequence, the figures for `O=C(O)C[C@H](Cc1ccccc1)NC(=O)/C(=C/c1c[nH]c2ccccc12)NC(=O)OC1C2CC3CC(C2)CC1C3` (some centres undefined) were 13 nM and 550 nM.
